Experimental data published in US11414431B2, “Substituted pyrazolo[1,5-a]pyrimidines as TYK2 inhibitors” (Nimbus Lakshmi, Inc., priority 2018, dated 2022).
Read-outs that look alike come from different tables or passages of the source.

How the values were obtained:
TYK2 = TYK2 (Homo sapiens (Human), UniProt P29597); assay: TYK2 Radioactive Kinase Assay; assay type: biochemical; conditions: read-out: TYK2 (% Inhibition at 10 μM)
[1] = molecular target: human TYK2 (JH2domain-pseudokinase) (Homo sapiens (Human), UniProt P29597); assay: TYK2 JH2 Domain Binding Assay (KINOMEscan); conditions: 11-point 3-fold dilution, top concentration 30,000 nM, duplicate; read-out: hTYK2_JH2_Binding (Kd; nM)
Sequence of human TYK2 (JH2domain-pseudokinase) (P29597 556-888): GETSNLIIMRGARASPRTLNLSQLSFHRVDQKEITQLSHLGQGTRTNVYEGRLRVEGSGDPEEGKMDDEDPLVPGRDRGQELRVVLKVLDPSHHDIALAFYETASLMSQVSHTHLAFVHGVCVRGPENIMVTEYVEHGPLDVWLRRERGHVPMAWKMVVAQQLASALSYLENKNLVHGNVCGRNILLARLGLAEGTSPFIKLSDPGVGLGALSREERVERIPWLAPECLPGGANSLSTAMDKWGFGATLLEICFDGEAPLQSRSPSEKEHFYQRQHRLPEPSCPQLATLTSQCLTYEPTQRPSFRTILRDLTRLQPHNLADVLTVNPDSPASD
Method in brief: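 KINOMEscan competition binding: HEK293-expressed NFkB-fused TYK2 JH2 (G556–D888), DNA-tagged, against immobilized ligand beads, 1 h shaking at room temperature, 0.9% DMSO. Bound kinase quantified by qPCR.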

JAK2 = JAK2 (Homo sapiens (Human), UniProt O60674); assay: JAK2 Radioactive Kinase Assay; assay type: biochemical; conditions: read-out: JAK2 (% Inhibition at 10 μM)
Sequence of JAK2 (O60674 whole entry): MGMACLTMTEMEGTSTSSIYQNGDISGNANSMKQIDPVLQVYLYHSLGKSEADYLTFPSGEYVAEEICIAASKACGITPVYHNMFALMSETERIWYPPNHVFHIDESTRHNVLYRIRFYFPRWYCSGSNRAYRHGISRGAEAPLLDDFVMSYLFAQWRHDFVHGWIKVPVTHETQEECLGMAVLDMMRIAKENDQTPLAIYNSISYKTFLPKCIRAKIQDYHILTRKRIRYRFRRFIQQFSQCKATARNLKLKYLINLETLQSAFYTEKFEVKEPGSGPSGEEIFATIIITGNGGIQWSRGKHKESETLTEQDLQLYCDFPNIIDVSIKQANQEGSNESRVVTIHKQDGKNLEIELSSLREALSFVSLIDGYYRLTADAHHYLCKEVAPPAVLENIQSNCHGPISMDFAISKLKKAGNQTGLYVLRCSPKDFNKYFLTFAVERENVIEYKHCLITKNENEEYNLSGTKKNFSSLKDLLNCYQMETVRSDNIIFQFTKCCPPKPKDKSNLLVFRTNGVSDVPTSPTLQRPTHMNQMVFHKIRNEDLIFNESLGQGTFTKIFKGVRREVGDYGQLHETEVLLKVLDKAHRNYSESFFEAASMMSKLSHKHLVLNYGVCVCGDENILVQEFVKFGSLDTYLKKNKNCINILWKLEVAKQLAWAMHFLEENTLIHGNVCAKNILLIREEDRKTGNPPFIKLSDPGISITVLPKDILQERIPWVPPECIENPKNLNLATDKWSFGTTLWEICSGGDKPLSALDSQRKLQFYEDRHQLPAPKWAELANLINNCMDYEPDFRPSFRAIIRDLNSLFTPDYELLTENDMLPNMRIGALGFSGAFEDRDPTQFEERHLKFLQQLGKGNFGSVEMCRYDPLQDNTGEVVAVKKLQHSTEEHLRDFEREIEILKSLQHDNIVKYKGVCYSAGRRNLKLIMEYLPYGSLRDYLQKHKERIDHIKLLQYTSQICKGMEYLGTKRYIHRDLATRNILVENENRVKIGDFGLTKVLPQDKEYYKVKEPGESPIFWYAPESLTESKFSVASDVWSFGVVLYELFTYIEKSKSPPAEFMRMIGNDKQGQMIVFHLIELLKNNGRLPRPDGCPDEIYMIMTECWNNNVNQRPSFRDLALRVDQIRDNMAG
Experimental: Peptide substrate, [[…]], (20 μM) was prepared in reaction buffer (20 mM Hepes pH 7.5, 10 mM MgCl2, 1 mM EGTA, 0.02% Brij35, 0.02 mg/mL BSA, 0.1 mM […], 2 mM DTT, 1% DMSO. TYK2 (Invitrogen) kinase was added, followed by compounds in DMSO. 33PATP was added to initiate the reaction in ATP at […]. Kinase reaction was incubated for 120 min at room temp and reactions were spotted onto P^81 ion exchange paper (Whatman #3698-915), and then washed extensively in 0.75% phosphoric acid, prior to reading the radioactivity counts. For JAK2 (Invitrogen) kinase assay the peptide substrate poly[Glu:Tyr] (4:1), 0.2 mg/mL was used, in the reaction carried out the same as for TYK2.

[2] = test system: IL-12 induced STAT4 phosphorlyation mediated by TYK2/JAK2; assay: IL-12 Induced pSTAT4 in Human PBMC; assay type: cell-based; conditions: 0.5 h, 1.7 ng/mL IL-12 for 30 minutes
Method in brief: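 Thawed human PBMC pre-incubated with compound 1 hr at 37° C (0.1% DMSO final), then stimulated 30 minutes with IL-12 at 1.7 ng/mL final. pSTAT4 and total STAT4 measured in cell lysates with MSD reagents.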

[3] = compound at 10 μM, peptide substrate […]
[4] = compound at 10 μM, substrate poly[Glu:Tyr] (4:1)

Sequence of TYK2 (P29597 whole entry, the tested form may be a part): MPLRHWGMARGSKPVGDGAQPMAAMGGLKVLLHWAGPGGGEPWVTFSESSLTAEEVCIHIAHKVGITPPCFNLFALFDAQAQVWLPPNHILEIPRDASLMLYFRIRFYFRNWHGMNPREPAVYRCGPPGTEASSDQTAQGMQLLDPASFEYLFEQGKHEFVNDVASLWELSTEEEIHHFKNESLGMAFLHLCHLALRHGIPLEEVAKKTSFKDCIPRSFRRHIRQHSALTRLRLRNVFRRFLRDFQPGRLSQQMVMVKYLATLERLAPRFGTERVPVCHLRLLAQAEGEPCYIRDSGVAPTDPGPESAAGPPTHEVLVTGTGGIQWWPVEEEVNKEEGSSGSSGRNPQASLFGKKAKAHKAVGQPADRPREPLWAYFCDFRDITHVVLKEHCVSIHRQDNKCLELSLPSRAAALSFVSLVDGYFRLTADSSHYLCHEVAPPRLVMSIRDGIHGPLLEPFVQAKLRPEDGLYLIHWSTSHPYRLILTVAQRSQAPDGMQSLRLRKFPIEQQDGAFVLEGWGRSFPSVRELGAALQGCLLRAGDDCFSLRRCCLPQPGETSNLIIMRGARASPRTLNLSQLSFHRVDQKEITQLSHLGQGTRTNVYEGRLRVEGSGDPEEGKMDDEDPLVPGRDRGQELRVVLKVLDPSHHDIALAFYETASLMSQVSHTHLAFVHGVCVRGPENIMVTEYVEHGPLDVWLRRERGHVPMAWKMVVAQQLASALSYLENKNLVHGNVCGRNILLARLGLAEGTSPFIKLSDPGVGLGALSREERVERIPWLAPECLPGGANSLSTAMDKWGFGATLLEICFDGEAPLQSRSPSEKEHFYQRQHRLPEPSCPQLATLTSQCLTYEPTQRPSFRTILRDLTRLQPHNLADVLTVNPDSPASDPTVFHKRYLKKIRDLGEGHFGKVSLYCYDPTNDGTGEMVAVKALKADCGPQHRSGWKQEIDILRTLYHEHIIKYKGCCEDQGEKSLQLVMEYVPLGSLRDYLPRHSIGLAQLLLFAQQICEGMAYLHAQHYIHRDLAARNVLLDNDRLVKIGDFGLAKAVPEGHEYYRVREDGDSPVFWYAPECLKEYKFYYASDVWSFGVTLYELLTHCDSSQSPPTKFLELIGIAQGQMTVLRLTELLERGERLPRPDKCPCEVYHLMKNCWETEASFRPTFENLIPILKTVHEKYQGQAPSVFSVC

Row | inhibition at 10 µM (TYK2; [3]) [%] | Kd [1] [nM] | inhibition at 10 µM (JAK2; [4]) [%] | IC50 [2] [µM] | SMILES | inhibition at 10 µM (TYK2) [%] | inhibition at 10 µM (JAK2) [%]
1 | < 50 | < 0.2 | < 50 |  | CNc1cc(-c2cn(C3CCOCC3)c3ncc(F)cc23)nc2c(C(=O)N[C@H]3CC[C@@H]3O)cnn12 [Compound I-18, 5-(5-Fluoro-1-(tetrahydro-2H-pyran-4-yl)-1H-pyrrolo[2,3-b]pyridin-3-yl)-N-((1S,2S)-2-hydroxycyclobutyl)-7-(methylamino)pyrazolo[1,5-a]pyrimidine-3-carboxamide] |  | 
2 | < 50 | < 0.2 | < 50 | > 1 | CNc1cc(Nc2cccn(C3CCC[C@@](C)(O)C3)c2=O)nc2c(C(=O)NC3CC3)cnn12 (stereo in doubt) [Compound I-1, N-Cyclopropyl-5-((1-(3-hydroxy-3-methylcyclohexyl)-2-oxo-1,2-dihydropyridin-3-yl)amino)-7-(methylamino)pyrazolo[1,5-a]pyrimidine-3-carboxamide] |  | 
3 | < 50 | 1 to 10 | < 50 |  | CNc1cc(Nc2cccn(C3CC(F)(F)C3)c2=O)nc2c(C(=O)N[C@@H]3COC[C@@H]3O)cnn12 [Compound I-59, 5-((1-(3,3-Difluorocyclobutyl)-2-oxo-1,2-dihydropyridin-3-yl)amino)-N-((3R,4R)-4-hydroxytetrahydrofuran-3-yl)-7-(methylamino)pyrazolo[1,5-a]pyrimidine-3-carboxamide] |  | 
4 | < 50 | 0.2 to 1 | < 50 |  | CNc1cc(Nc2cccn(C3CC(F)(F)C3)c2=O)nc2c(C(=O)N[C@H]3COC[C@H]3O)cnn12 [Compound I-58, 5-((1-(3,3-Difluorocyclobutyl)-2-oxo-1,2-dihydropyridin-3-yl)amino)-N-((3S,4S)-4-hydroxytetrahydrofuran-3-yl)-7-(methylamino)pyrazolo[1,5-a]pyrimidine-3-carboxamide] |  | 
5 | < 50 | 1 to 10 | < 50 |  | CNc1cc(Nc2cccn([C@H]3CCCOC3)c2=O)nc2c(C(=O)N[C@@H]3CCC[C@@](C)(OC)C3)cnn12 [Compound I-94, N-((1R,3R)-3-Methoxy-3-methylcyclohexyl)-7-(methylamino)-5-((2-oxo-1-((S)-tetrahydro-2H-pyran-3-yl)-1,2-dihydropyridin-3-yl)amino)pyrazolo[1,5-a]pyrimidine-3-carboxamide] |  | 

Continued, compound first:

Row | SMILES | inhibition at 10 µM (TYK2; [3]) [%] | Kd [1] [nM] | inhibition at 10 µM (JAK2; [4]) [%] | IC50 [2] [µM] | inhibition at 10 µM (TYK2) [%] | inhibition at 10 µM (JAK2) [%]
6 | CNc1cc(Nc2cccn(C3CC(F)(F)C3)c2=O)nc2c(C(=O)N[C@H]3CC[C@@H]3OC)cnn12 [Compound I-47, 5-((1-(3,3-Difluorocyclobutyl)-2-oxo-1,2-dihydropyridin-3-yl)amino)-N-((1S,2S)-2-methoxycyclobutyl)-7-(methylamino)pyrazolo[1,5-a]pyrimidine-3-carboxamide] | < 50 | > 10 | < 50 |  |  | 
7 | CNc1cc(Nc2cccn([C@H]3CCCOC3)c2=O)nc2c(C(=O)N[C@H]3CCC[C@](C)(OC)C3)cnn12 [Compound I-95, N-((1S,3S)-3-Methoxy-3-methylcyclohexyl)-7-(methylamino)-5-((2-oxo-1-((S)-tetrahydro-2H-pyran-3-yl)-1,2-dihydropyridin-3-yl)amino)pyrazolo[1,5-a]pyrimidine-3-carboxamide] | < 50 | 1 to 10 | < 50 |  |  | 
8 | CNc1cc(-c2cn(C3CCOCC3)c3ncc(F)cc23)nc2c(C(=O)N[C@@H]3CC[C@H]3O)cnn12 [Compound I-19, 5-(5-Fluoro-1-(tetrahydro-2H-pyran-4-yl)-1H-pyrrolo[2,3-b]pyridin-3-yl)-N-((1R,2R)-2-hydroxycyclobutyl)-7-(methylamino)pyrazolo[1,5-a]pyrimidine-3-carboxamide] | < 50 | 0.2 to 1 | < 50 |  |  | 
9 | CNc1cc(Nc2cccn(-c3ccccn3)c2=O)nc2c(C(=O)N[C@H]3CC[C@H](OC)C3)cnn12 [Compound I-68, N-((1S,3S)-3-Methoxycyclopentyl)-7-(methylamino)-5-((2-oxo-2H-[1,2′-bipyridin]-3-yl)amino)pyrazolo[1,5-a]pyrimidine-3-carboxamide] | < 50 | […] | < 50 |  |  | 
10 | CNc1cc(Nc2cccn([C@@H]3CCOC[C@@H]3OC)c2=O)nc2c(-c3cn(C(C)C)nn3)cnn12 [Compound I-116, 3-((3-(1-Isopropyl-1H-1,2,3-triazol-4-yl)-7-(methylamino)pyrazolo[1,5-a]pyrimidin-5-yl)amino)-1-((3R,4R)-3-methoxytetrahydro-2H-pyran-4-yl)pyridin-2(1H)-one] | < 50 | 1 to 10 | < 50 |  |  | 
11 | CNc1cc(Nc2cccn([C@H]3C[C@H](F)C3)c2=O)nc2c(C(=O)NC3CC[C@@H]3OC)cnn12 (stereo partly drawn) [Compound I-46, 5-((1-((1r,3S)-3-Fluorocyclobutyl)-2-oxo-1,2-dihydropyridin-3-yl)amino)-N-((trans-1,2)-2-methoxycyclobutyl)-7-(methylamino)pyrazolo[1,5-a]pyrimidine-3-carboxamide] |  |  |  | < 0.1 | < 50 | < 50
12 | CNc1cc(Nc2cccn(C3CC(F)(F)C3)c2=O)nc2c(C(=O)NC3C[C@H]3OC)cnn12 (stereo partly drawn) [Compound I-33, 5-((1-(3,3-Difluorocyclobutyl)-2-oxo-1,2-dihydropyridin-3-yl)amino)-N-((trans-1,2)-2-methoxycyclopropyl)-7-(methylamino)pyrazolo[1,5-a]pyrimidine-3-carboxamide] | < 50 |  | < 50 | < 0.1 |  | 
13 | CNc1cc(Nc2cccn([C@H]3C[C@H](F)C3)c2=O)nc2c(C(=O)N[C@@H]3C[C@@H]3F)cnn12 [Compound I-7, 5-((1-((1r,3R)-3-Fluorocyclobutyl)-2-oxo-1,2-dihydropyridin-3-yl)amino)-N-((1R,2S)-2-fluorocyclopropyl)-7-(methylamino)pyrazolo[1,5-a]pyrimidine-3-carboxamide] | < 50 |  | < 50 | < 0.1 |  | 
14 | CNc1cc(Nc2cccn([C@H]3CCOC[C@H]3OC)c2=O)nc2c(-c3cn(C(C)C)nn3)cnn12 [Compound I-117, 3-((3-(1-Isopropyl-1H-1,2,3-triazol-4-yl)-7-(methylamino)pyrazolo[1,5-a]pyrimidin-5-yl)amino)-1-((3S,4S)-3-methoxytetrahydro-2H-pyran-4-yl)pyridin-2(1H)-one] | < 50 | > 10 | < 50 |  |  | 
15 | CNc1cc(Nc2cccn(C3CC(F)(F)C3)c2=O)nc2c(C(=O)N[C@@H]3CC[C@H]3OC)cnn12 [Compound I-48, 5-((1-(3,3-Difluorocyclobutyl)-2-oxo-1,2-dihydropyridin-3-yl)amino)-N-((1R,2R)-2-methoxycyclobutyl)-7-(methylamino)pyrazolo[1,5-a]pyrimidine-3-carboxamide] | < 50 | < 0.2 | < 50 | < 0.1 |  | 
16 | CNc1cc(Nc2cccn(C3CC(F)(F)C3)c2=O)nc2c(C(=O)N[C@@H]3CC[C@H](O)C3)cnn12 [Compound I-36, 5-((1-(3,3-Difluorocyclobutyl)-2-oxo-1,2-dihydropyridin-3-yl)amino)-N-((1R,3S)-3-hydroxycyclopentyl)-7-(methylamino)pyrazolo[1,5-a]pyrimidine-3-carboxamide] | < 50 | 0.2 to 1 | < 50 |  |  | 
17 | CNc1cc(Nc2cccn(C3CC(F)(F)C3)c2=O)nc2c(C(=O)N[C@H]3CC[C@@H](O)C3)cnn12 [Compound I-37, 5-((1-(3,3-Difluorocyclobutyl)-2-oxo-1,2-dihydropyridin-3-yl)amino)-N-((1S,3R)-3-hydroxycyclopentyl)-7-(methylamino)pyrazolo[1,5-a]pyrimidine-3-carboxamide] | < 50 | 0.2 to 1 | < 50 |  |  | 
